Test results taken from ChEMBL document CHEMBL1137877, “Synthesis and evaluation of 4-(1-aminoalkyl)-N-(4-pyridyl)cyclohexanecarboxamides as Rho kinase inhibitors and neurite outgrowth promoters” (2004).

Tested on: NG108-15
Assay: Mean percent neurite outgrowth (cells with neurites longer than cell body/total cells) was determined in NG108-15 cells after 4 hr incubation at 35 uM
Type: functional, Mus musculus x Rattus norvegicus

Structure (SMILES)	Activity [%]
C[C@@H](N)[C@H]1CC[C@H](C(=O)Nc2ccncc2)CC1.Cl.Cl	82
C[C@@H](N)C1CCC(C(=O)Nc2ccncc2)CC1.Cl.Cl (stereo partly specified)	68
CCCCCCCC[C@@H](N)C1CCC(C(=O)Nc2ccncc2)CC1.Cl.Cl (stereo partly specified)	0
C[C@H](N)C1CCC(C(=O)Nc2ccncc2)CC1.Cl.Cl (stereo partly specified)	70
CCC[C@H](N)C1CCC(C(=O)Nc2ccncc2)CC1.Cl.Cl (stereo partly specified)	23
CCC[C@@H](N)C1CCC(C(=O)Nc2ccncc2)CC1.Cl.Cl (single isomer, unassigned; (+))	48
